Reference: PubChem BioAssay AID2060497 (Molecular Pharmacology Branch, DTP, NCI, 2025)

Test system: 317291-083-R-J1-PDC complex spheroids, viability
Test: Anticancer human tumor 317291-083-R-J1-PDC patient-derived soft tissue sarcoma cell line growth inhibition [GQUAD]
Details: for IC50: curve of first compound; for viability, T/C: stronger effect = lower value
Summary of the method: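 Multi-cell-type spheroids of tumor cells with HUVEC and mesenchymal stem cells, treated with drug combinations. Concentrations descend in half-log steps from near clinical Cmax, or from 10 microM where Cmax is unknown; viability read-out.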

[1] = second compound 0.0316 µM, first compound 0.0316 µM
[2] = second compound 0.0316 µM, first compound 0.1 µM
[3] = second compound 0.0316 µM, first compound 0.316 µM
[4] = second compound 0.0316 µM, first compound 1 µM
[5] = second compound 0.0316 µM, first compound 3.16 µM
[6] = second compound 0.0316 µM, first compound 10 µM
[7] = second compound 0.1 µM, first compound 0.0316 µM
[8] = second compound 0.1 µM, first compound 0.1 µM
[9] = second compound 0.1 µM, first compound 0.316 µM
[10] = second compound 0.1 µM, first compound 1 µM
[11] = second compound 0.1 µM, first compound 3.16 µM
[12] = second compound 0.1 µM, first compound 10 µM
[13] = second compound 0.316 µM, first compound 0.0316 µM
[14] = second compound 0.316 µM, first compound 0.1 µM
[15] = second compound 0.316 µM, first compound 0.316 µM
[16] = second compound 0.316 µM, first compound 1 µM
[17] = second compound 0.316 µM, first compound 3.16 µM
[18] = second compound 0.316 µM, first compound 10 µM
[19] = second compound 1 µM, first compound 0.0316 µM
[20] = second compound 1 µM, first compound 0.1 µM
[21] = second compound 1 µM, first compound 0.316 µM
[22] = second compound 1 µM, first compound 1 µM
[23] = second compound 1 µM, first compound 3.16 µM
[24] = second compound 1 µM, first compound 10 µM
[25] = second compound 3.16 µM, first compound 0.0316 µM
[26] = second compound 3.16 µM, first compound 0.1 µM
[27] = second compound 3.16 µM, first compound 0.316 µM
[28] = second compound 3.16 µM, first compound 1 µM
[29] = second compound 3.16 µM, first compound 3.16 µM
[30] = second compound 3.16 µM, first compound 10 µM
[31] = second compound 10 µM, first compound 0.0316 µM
[32] = second compound 10 µM, first compound 0.1 µM
[33] = second compound 10 µM, first compound 0.316 µM
[34] = second compound 10 µM, first compound 1 µM
[35] = second compound 10 µM, first compound 3.16 µM
[36] = second compound 10 µM, first compound 10 µM
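Further: spheroids exposed to compounds for one week before readout.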
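Wherever viability, T/C is given: percent viability relative to DMSO vehicle wells taken as 100%.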

C=CCn1c(=O)c2cnc(Nc3ccc(N4CCN(C)CC4)cc3)nc2n1-c1cccc(C(C)(C)O)n1 + Cc1cnc(CNC(=O)c2c(=O)c3ccc(N4CCCN(C)CC4)nc3n3c2sc2ccccc23)cn1 showed an IC50 (second compound 0.0316 µM) of 171 nM, an IC50 (second compound 0.1 µM) of 64.7 nM and an IC50 (second compound 0.316 µM) of less than 31.6 nM. For the same compound, the IC50 (second compound 1 µM) was less than 31.6 nM, the IC50 (second compound 3.16 µM) was less than 31.6 nM and the IC50 (second compound 10 µM) was less than 31.6 nM. The viability, T/C [1] was 79.7%, the viability, T/C [2] was 65.5% and the viability, T/C [3] was 31.2%. The viability, T/C [4] was 28.8%, the viability, T/C [5] was 17.8% and the viability, T/C [6] was 17.2%. The viability, T/C [7] was 57.3%, the viability, T/C [8] was 45.4% and the viability, T/C [9] was 30.3%. For the same compound, the viability, T/C [10] was 19.9%, the viability, T/C [11] was 14.6% and the viability, T/C [12] was 14.8%. For the same compound, the viability, T/C [13] was 43.2%, the viability, T/C [14] was 27.5% and the viability, T/C [15] was 22.6%. The viability, T/C [16] was 20.9%, the viability, T/C [17] was 12% and the viability, T/C [18] was 17.6%. It also gave a viability, T/C [19] of 27.7%, a viability, T/C [20] of 30.3% and a viability, T/C [21] of 24.6%. It also gave a viability, T/C [22] of 15.1%, a viability, T/C [23] of 8.69% and a viability, T/C [24] of 8.16%. It also gave a viability, T/C [25] of 15.6%, a viability, T/C [26] of 13% and a viability, T/C [27] of 19.1%. It also gave a viability, T/C [28] of 4.5%, a viability, T/C [29] of 4.07% and a viability, T/C [30] of 2.45%. It also gave a viability, T/C [31] of 0.13%, a viability, T/C [32] of 0.27% and a viability, T/C [33] of 0.18%. For the same compound, the viability, T/C [34] was 1.89%, the viability, T/C [35] was 0.2% and the viability, T/C [36] was 0.61%.

CC1COCCN1c1cc(-c2ccnn2C)c2ccnc(-c3ccn[nH]3)c2n1 (stereo unspecified) + CN(C)c1ccc(Nc2c3ccc(NC(=O)CCN4CCCC4)cc3nc3cc(NC(=O)CCN4CCCC4)ccc23)cc1 gave an IC50 (second compound 0.0316 µM) of 64.7 nM, an IC50 (second compound 0.1 µM) of 66.8 nM and an IC50 (second compound 0.316 µM) of 42.4 nM. For the same compound, the IC50 (second compound 1 µM) was less than 31.6 nM, the IC50 (second compound 3.16 µM) was less than 31.6 nM and the IC50 (second compound 10 µM) was less than 31.6 nM. For the same compound, the viability, T/C [1] was 87.2%, the viability, T/C [2] was 27.4% and the viability, T/C [3] was 17%. The viability, T/C [4] was 13.8%, the viability, T/C [5] was 13.8% and the viability, T/C [6] was 14.2%. It also gave a viability, T/C [7] of 84.5%, a viability, T/C [8] of 31.4% and a viability, T/C [9] of 14.9%. It also gave a viability, T/C [10] of 13.7%, a viability, T/C [11] of 12.1% and a viability, T/C [12] of 14%. For the same compound, the viability, T/C [13] was 59.1%, the viability, T/C [14] was 24.3% and the viability, T/C [15] was 15.2%. It also gave a viability, T/C [16] of 11.2%, a viability, T/C [17] of 15.5% and a viability, T/C [18] of 19.9%. The viability, T/C [19] was 41.1%, the viability, T/C [20] was 17% and the viability, T/C [21] was 33.6%. It also gave a viability, T/C [22] of 10.3%, a viability, T/C [23] of 7.25% and a viability, T/C [24] of 6.88%. For the same compound, the viability, T/C [25] was 25.8%, the viability, T/C [26] was 7.15% and the viability, T/C [27] was 5.62%. It also gave a viability, T/C [28] of 4.31%, a viability, T/C [29] of 3.37% and a viability, T/C [30] of 2.05%. It also gave a viability, T/C [31] of 3.62%, a viability, T/C [32] of 5.3% and a viability, T/C [33] of 7.04%. For the same compound, the viability, T/C [34] was 4%, the viability, T/C [35] was 1.52% and the viability, T/C [36] was 0.66%.

For CC1COCCN1c1cc(C2(O)CC3CCC(C2)O3)c2cnn(-c3ccn[nH]3)c2n1 (stereo unspecified) + Cc1cnc(CNC(=O)c2c(=O)c3ccc(N4CCCN(C)CC4)nc3n3c2sc2ccccc23)cn1, the IC50 (second compound 0.0316 µM) was less than 31.6 nM, the IC50 (second compound 0.1 µM) was less than 31.6 nM and the IC50 (second compound 0.316 µM) was less than 31.6 nM. It also gave an IC50 (second compound 1 µM) of less than 31.6 nM, an IC50 (second compound 3.16 µM) of less than 31.6 nM and an IC50 (second compound 10 µM) of less than 31.6 nM. The viability, T/C [1] was 32.1%, the viability, T/C [2] was 22.9% and the viability, T/C [3] was 11.1%. The viability, T/C [4] was 10.5%, the viability, T/C [5] was 13% and the viability, T/C [6] was 3.33%. It also gave a viability, T/C [7] of 25.9%, a viability, T/C [8] of 22.6% and a viability, T/C [9] of 10.6%. It also gave a viability, T/C [10] of 11.6%, a viability, T/C [11] of 28.6% and a viability, T/C [12] of 2.82%. The viability, T/C [13] was 18.4%, the viability, T/C [14] was 16.2% and the viability, T/C [15] was 26.7%. The viability, T/C [16] was 11.9%, the viability, T/C [17] was 11.1% and the viability, T/C [18] was 2.89%. It also gave a viability, T/C [19] of 25.6%, a viability, T/C [20] of 18.5% and a viability, T/C [21] of 12.9%. The viability, T/C [22] was 12.1%, the viability, T/C [23] was 11.7% and the viability, T/C [24] was 5.12%. For the same compound, the viability, T/C [25] was 14.8%, the viability, T/C [26] was 14.6% and the viability, T/C [27] was 11.1%. For the same compound, the viability, T/C [28] was 12.7%, the viability, T/C [29] was 15.6% and the viability, T/C [30] was 0.73%. It also gave a viability, T/C [31] of 12.7%, a viability, T/C [32] of 9.14% and a viability, T/C [33] of 16.9%. It also gave a viability, T/C [34] of 24.7%, a viability, T/C [35] of 12.1% and a viability, T/C [36] of 2.17%.
